Measurements: PMC7696666, “Epithelial Transfer of the Tyrosine Kinase Inhibitors Erlotinib, Gefitinib, Afatinib, Crizotinib, Sorafenib, Sunitinib, and Dasatinib: Implications for Clinical Resistance” (Cancers, 2020)

Columns and labels:
[1] = CaCo2 Transwell transport (Papp, efflux ratio); format: in vitro ADME, human; conditions: human
Procedure: (§1) The Transwell system was developed using the wild type Caco-2 cell line (passage 15–25) cultured in Dulbecco’s […] medium (DMEM) at standard conditions of 37 °C, 5% CO2, and 100% humidity as previously reported. […] To ensure a controlled growth environment the plate was covered with Breathe-Easier cell culture foil during the incubation period. The integrity of the developed monolayer was assessed by TEER before administration of compound solutions and after the final sampling stage.
(§2) The initial concentration of the drug was verified from a 20 µL sample taken immediately from the donor compartment after drug administration (t = 0).
(§3) The permeability coefficient (Papp) represents a measure for the efficiency of transport and was calculated with the following equation: Papp=ΔQ/Δt×V/C0⋅A where ∆Q/∆t = the rate of increase in drug concentration (accumulative mass transport) in the receiver compartment over time (µM/s), V = volume in the receiver compartment (mL), C0 = the initial concentration of drug in the donor compartment (µM), and A = the membrane surface area (cm^2).
(§4) To take into account the slightly nonlinear transfer characteristics of each compound, the rate of increase in drug concentration was determined for each time period and the Papp was then calculated. The average Papp was then determined with units of cm/s × 10^−6 or µm/s.
(§5) The efflux ratio was calculated according to the equation: Efflux ratio=PappB→A/PappA→B.
(§6) Statistical significance was determined using a simple Student’s t-test where a p value of <0.05 was considered significant.

CaCo2 monolayer = assay: CaCo2 Transwell transport (Papp, efflux ratio); format: in vitro ADME, human; conditions: 20 µM
Procedure: as §1, §2, §3, §4, §5, §6

CaCo2 cells = assay: Intracellular accumulation in CaCo2 Transwell cells at the end of the transport period; format: in vitro ADME, human; conditions: A->B incubation
Procedure: (§7) In order to get insight in the barrier role of the CaCo2 model system, we determined the intracellular accumulation of the TKISs at the end of the transport period, in normal monolayers of CaCo2 cells and in several other colon cancer cell lines. At the end of the transport period (both from the B->A and A->B incubations), cells were harvested and intracellular accumulation was determined.
These cells were exposed to 20 μM of a TKI and were harvested after 2 h for determination of TKI concentration with LC-MS-MS. Values are means ± SEM for the number of experiments described in Figure 3, Figure 4, and Figure 5 and from three separate experiments for the monolayer CaCo2 and WiDr cells. […] A->B, mass transport from A to B; B->A, mass transport from B to A. For AFA, CRI, and DAS, no data in WiDr cells were available. […] The bar heights were not read.
In a different set of experiments, the CaCo2 cells were cultured in 6-wells plates as monolayers until semiconfluency. Two other colon cancer cell lines, WiDr and HT29, were cultured similarly. These cells were exposed for 2 h to various TKIs at concentrations varying from 50 nM to 20 µM). […] At the end of the incubation, cells were harvested, as described earlier, and extracted for drug analysis using LC-MS-MS as described above.

HT29 cells = assay: Intracellular accumulation in HT29 colon cancer cells; format: in vitro ADME; conditions: after 24 h
Procedure: as §7
In a different set of experiments, the CaCo2 cells were cultured in 6-wells plates as monolayers until semiconfluency. Two other colon cancer cell lines, WiDr and HT29, were cultured similarly. […]

WiDr cells = assay: Growth inhibition of WiDr cells; format: cell-based; conditions: Homo sapiens, 72 hr exposure, read-out: Concentration leading to 50% growth inhibition
[2] = parameters: method as in PMID 17429625; conditions: ref [32]; cited from earlier work
[3] = parameters: method as in PMID 30544701; conditions: method not given, ref [45], cited from earlier work

SMILES: Cc1nc(Nc2ncc(C(=O)Nc3c(C)cccc3Cl)s2)cc(N2CCN(CCO)CC2)n1 [Dasatinib, dasatinib]
- efflux ratio at 180 min, 20 µM ([1]; Caco-2, 20 µM, read-out: Efflux Ratio (Papp B–A / Papp A–B)): > 5
- Papp A→B at 180 min, 20 µM ([1]; Caco-2, 20 µM, A–B, read-out: Papp (Apical Basolateral)): 3.4 ± 3.4 ×10⁻⁶ cm/s
- Papp B→A at 180 min, 20 µM ([1]; Caco-2, 20 µM, B–A, read-out: Papp (Basolateral Apical)): 20.4 ± 13.5 ×10⁻⁶ cm/s
- Efflux Ratio (Papp B–A / Papp A–B) (CaCo2 monolayer): 6.0
- Total amount transferred apical to basolateral in 3 h (CaCo2 monolayer; A–B, 3 h): 499.3 pmol
- Papp basolateral to apical (CaCo2 monolayer; B–A): 20.4 ×10⁻⁶ cm/s
- Total amount transferred basolateral to apical in 3 h (CaCo2 monolayer; B–A, 3 h): 13,889 pmol
- Efflux Ratio (Papp B–A / Papp A–B) (CaCo2 monolayer; listed as dasatinib): > 6
- Intracellular accumulation at the end of the transfer period (A->B) (CaCo2 cells): 1.1 pmol/μg protein
- Intracellular accumulation in HT29 cells (HT29 cells): 0.14 pmol/μg protein
- IC50 (WiDr cells): 60 nM
- Bioavailability (animal) [2]: 14–27 [32] (animal) %
- Log P [3]: 2.24
- Log D (pH 5.5) ([3]; pH 5.5): −0.44
- Log D (pH 7.5) ([3]; pH 7.5): 2.17
